Laboratory results from PMC6072100, “Exploring the links between peptoid antibacterial activity and toxicity” (MedChemComm, 2017).
Square brackets hold non-standard residues; d marks the D form. Peptide text beside a SMILES is read from it. N(isopentyl)Gly = CC(C)CCNCC(=O)O; Nspe = C[C@H](NCC(=O)O)c1ccccc1; NhArg = N=C(N)NCCCCNCC(=O)O; Nlys = NCCCCNCC(=O)O

Experiments:
[1] = tested on: Staphylococcus epidermidis (laboratory strain from clinical isolate); type: cell-based; settings: lowest concentration completely inhibiting growth, 37 °C, 16 h; range 2–100 μM
Protocol: (§1) Escherichia coli K-12 wild-type strain (W3110/ATCC27325, F^–, λ^–, rpoS(Am), rph-1, Inv(rrnD-rrnE)), Pseudomonas aeruginosa PA01 (ATCC 15692) Staphylococcus aureus (3R7089 strain Oxford/ATCC9144) and Staphylococcus epidermidis (laboratory strain from clinical isolate) were selected for bacteriological studies as representative Gram-negative (E. coli and P. aeruginosa) and Gram-positive (S. aureus and S. epidermidis) species. Bacterial cultures were prepared by streaking bacterial strains onto LB agar plates with an inoculation loop and incubated overnight at 37 °C. A single colony was selected and placed in 5 mL of Iso-sensitest broth (Oxoid, ThermoScientific) and incubated with shaking for 16–18 h at 37 °C to provide liquid cultures for testing.
(§2) MIC values were obtained according to the protocol described by J. M. Andrews et al.[58] and were conducted in 96-well plates (Sarstedt). Bacteria were grown from overnight cultures in Iso-sensitest broth to an A650nm of 0.07 equivalent to a 0.5 MacFarland standard (240 μM BaCl2 in 0.18 M H2SO4). This culture was diluted ten-fold with Iso-sensitest broth before use. Peptoids were initially dissolved in DMSO (5 mM) and diluted further in Iso-sensitest broth to achieve a concentration range of 4–200 μM using 2-fold serial dilutions. 50 μl of inoculum and 50 μl of peptoid solution were added to each test well (final concentration range of 2–100 μM). Experiments were performed in triplicate. A positive control for bacterial growth contained only the inoculum and Iso-sensitest broth. Other controls contained the inoculum and serial dilutions of ampicillin (from 250 μg mL^–1 to 2 μg mL^–1), serial dilutions of DMSO and the inoculum to confirm no inhibitory effect on bacterial growth, and Iso-sensitest broth alone as a sterile control. […] Quantitative data was attained from absorbance values using a Biotek Synergy H4 plate reader.
(§3) Antibacterial MIC determination
(§4) Escherichia coli K-12 wild-type strain (W3110 / ATCC27325, F-, λ-, rpoS(Am), rph-1, Inv(rrnD-rrnE)), Pseudomonas aeruginosa PA01 (ATCC 15692) Staphylococcus aureus (3R7089 strain Oxford / ATCC9144) and Staphylococcus epidermidis (laboratory strain from clinical isolate) were selected for bacteriological studies as representative Gram-negative (E. coli and P. aeruginosa) and Gram-positive (S. aureus and S. epidermidis) species. Bacterial cultures were prepared by streaking bacterial strains onto LB agar plates with an inoculation loop and incubated overnight at 37 °C.
(§5) A single colony was selected and placed in 5 mL of Iso-sensitest broth (Oxoid, ThermoScientific) and incubated with shaking for 16-18 h at 37 °C to provide liquid […]
(§6) MIC values were obtained according to the protocol described by J. M. Andrews et al.1 and were conducted in 96-well plates (Sarstedt). Bacteria were grown from overnight cultures in Iso-sensitest broth to an A650nm of 0.07 equivalent to a 0.5 MacFarland standard (240 μM BaCl2 in 0.18 M H2SO4). This culture was diluted ten-fold with Iso-sensitest broth before use. Peptoids were initially dissolved in DMSO (5 mM) and diluted further in Iso-sensitest broth to achieve a concentration range of 4 – 200 µM using 2-fold serial dilutions. 50 μl of inoculum and 50 μl of peptoid solution were added to each test well (final concentration range of 2 – 100 µM). Experiments were performed in triplicate. A positive control for bacterial growth contained only the inoculum and Iso-sensitest broth. Other controls contained the inoculum and serial dilutions of ampicillin (from 250 µg/mL to 2 µg/mL), serial dilutions of DMSO and the inoculum to confirm no inhibitory effect on bacterial growth, and Iso-sensitest broth alone as a sterile control. […]
(§7) growth after incubation at 37 °C for 16 h with shaking. Quantitative data was attained from absorbance values using a Biotek Synergy H4 plate reader.

[2] = tested on: Pseudomonas aeruginosa PA01 (ATCC 15692); type: cell-based; settings: lowest concentration completely inhibiting growth, 37 °C, 16 h; range 2–100 μM
Protocol: as §1, §2, §3, §4, §5, §6, §7

[3] = tested on: Staphylococcus aureus (3R7089 strain Oxford/ATCC9144); type: cell-based; settings: lowest concentration completely inhibiting growth, 37 °C, 16 h; range 2–100 μM
Protocol: as §1, §2, §3, §4, §5, §6, §7

[4] = tested on: Escherichia coli K-12 wild-type strain (W3110/ATCC27325); type: cell-based; settings: lowest concentration completely inhibiting growth, 37 °C, 16 h; range 2–100 μM
Protocol: as §1, §2, §3, §4, §5, §6, §7

[5] = Skin cell toxicity assay with HaCaT (alamarBlue); type: cell-based, human; settings: human, HaCaT cells (keratinocytes), ED50 HaCaT
Protocol: The activity of our peptoid library was assessed against both bacterial and mammalian cells to gain a broader understanding of the factors that lead to effective and selective antimicrobial peptoids. We screened for broad-spectrum antibacterial activity against Gram-negative (Escherichia coli and Pseudomonas aeruginosa) and Gram-positive (Staphylococcus aureus and S. epidermidis) bacteria. The toxicity of the library was also assessed against two mammalian cell lines; HaCaT spontaneously transformed aneuploid keratinocytes were employed to model toxicity against human skin cells and HepG2, a cell line derived from a human liver carcinoma, were used as a study on polarised human hepatocytes. Detailed methods for these assays can be found in the ESI. ^‡ […]
Please note – ED50, the median effective dose, was defined as the dose that kills 50% of cells.
Cytotoxicity analyses were performed in 96-well plates (Costar, Fisher Scientific) using alamarBlue® (Invitrogen) for cell viability detection using a modified protocol as described previously. HepG2 or HaCaT cells were subcultured at 37 °C, 5% CO2 in DMEM high glucose supplemented with heat-inactivated foetal bovine sera (FBS, 10%; Biosera Ltd) and penicillin/streptomycin (P/S, 1%). Cells were counted using a Neubauer Improved Haemocytometer. HepG2 cells were seeded 1 day prior to treatment in 96 well plates at a concentration of 2 × 10^5 cells per mL in 100 μL of medium (2 × 10^4 cells per well). Then cells were pre-incubated with the compounds in triplicate in a dilution series in triplicate from 2–100 μM (5 mM stock solutions in DMSO diluted from 100 μM to 3 μM; untreated cells with DMSO as a negative control) in 50 μl of the media for 1 hour. Afterwards, 40 μL were removed from each well before the addition of 90 μL of the media, followed by incubation for 24 hours at 37 °C, 5% CO2. Then, 10 μL of alamarBlue® (Invitrogen) was added to each well before a 2 hour incubation prior to assessing cell viability using a fluorescent plate reader (Biotek; Ex 560 nm/Em 600 nm). All data were measured in triplicate on a minimum of two occasions to ensure a robust data set was collected. The ED50 values were calculated from the dose response results achieved from the serial dilutions. […]
Cells were counted using a Neubauer Improved
Haemocytometer. […]
µM to 3 µM; untreated cells with DMSO as a negative control) in 50 µl of the media for 1 hour.
Afterwards, 40 µL were removed from each well before the addition of 90 µL of the media, followed by incubation for 24 hours at 37 °C, 5% CO2. Then, 10 µL of alamarBlue® (Invitrogen) was added to each well before a 2 hour incubation prior to assessing cell viability using a fluorescent plate reader (Biotek; Ex 560 nm / Em 600 nm). All data was measured in triplicate on a minimum of two occasions to ensure a robust data set was collected. The ED50 values were calculated from the dose response results achieved from the serial dilutions.
Skin Cell Toxicity assay with HaCaT […]
alamarBlue® (Invitrogen) for cell viability detection. HaCaT cells were subcultured at 37 °C, 5% CO2 in DMEM high glucose supplemented with heat-inactivated foetal bovine sera (FBS, 10%; Biosera Ltd) and penicillin/streptomycin (P/S, 1%). Cells were counted using a Neubauer Improved Haemocytometer. HaCaT cells were seeded in the plates 24 hours prior to treatment in 96 well plates at a concentration of 2x10^5 cells/mL in 100 µL of medium (2x10^4 cells/well).
Empty wells were filled with 100 µL PBS. After 24 hours, cells were incubated with the compounds in a dilution series in triplicate from 2 – 100 µM (5 mM stock solutions in DMSO diluted from 100 µM to 3 µM; Amphotericin B was used as a positive control and untreated cells with DMSO as a negative control) in 50 µL of the media for 1 hour. Afterwards, 40 µl was removed from each well, 90 µL of medium was added to each well and the cells incubated for 24 hours at 37 °C, 5% CO2. 10 µL of alamarBlue® (Invitrogen) was added to each well before […]

Row | Compound | MIC S. epidermidis [1] | MIC P. aeruginosa [2] | MIC S. aureus [3] | MIC E. coli [4] | CC50 at 24 h [5]
1 | C[C@@H](c1ccccc1)N(CC(N)=O)C(=O)CN(C(=O)CN(CCCCNC(=N)N)C(=O)CN(C(=O)CN(C(=O)CN(CCCCNC(=N)N)C(=O)CN(C(=O)CN(C(=O)CNCCCCNC(=N)N)[C@@H](C)c1ccccc1)[C@@H](C)c1ccccc1)[C@@H](C)c1ccccc1)[C@@H](C)c1ccccc1)[C@@H](C)c1ccccc1 [Peptoid 35, (NhArgNspeNspe)3] (H-[NhArg][Nspe][Nspe][NhArg][Nspe][Nspe][NhArg][Nspe][Nspe]-NH2; N-terminus assumed) | 2 µM | 50 µM | 2 µM | 6 µM | –
2 | N=C(N)NCCCCNCC(=O)N(CC(=O)N(CC(=O)N(CCCCNC(=N)N)CC(=O)N(CC(=O)N(CC(=O)N(CCCCNC(=N)N)CC(=O)N(CC(=O)N(CC(N)=O)Cc1cccc(F)c1)Cc1cccc(F)c1)Cc1cccc(F)c1)Cc1cccc(F)c1)Cc1cccc(F)c1)Cc1cccc(F)c1 [Peptoid 37, (NhArgNmfbNmfb)3] | 1 µM | 25 µM | 2 µM | 6 µM | –
3 | CC(C)CCN(CC(=O)N(CC(N)=O)[C@@H](C)c1ccccc1)C(=O)CN(CCCCNC(=N)N)C(=O)CN(C(=O)CN(CCC(C)C)C(=O)CN(CCCCNC(=N)N)C(=O)CN(C(=O)CN(CCC(C)C)C(=O)CN(CCCCNC(=N)N)C(=O)CN(C(=O)CN(CCC(C)C)C(=O)CNCCCCNC(=N)N)[C@@H](C)c1ccccc1)[C@@H](C)c1ccccc1)[C@@H](C)c1ccccc1 [Peptoid 38, (NhArgNhLeuNspe)4] (H-[NhArg][N(isopentyl)Gly][Nspe][NhArg][N(isopentyl)Gly][Nspe][NhArg][N(isopentyl)Gly][Nspe][NhArg][N(isopentyl)Gly][Nspe]-NH2; N-terminus assumed) | 2 µM | 25 µM | 1 µM | 13 µM | –
4 | CC(C)CCN(CC(=O)N(CC(N)=O)[C@@H](C)c1ccccc1)C(=O)CN(CCCCNC(=N)N)C(=O)CN(C(=O)CN(CCC(C)C)C(=O)CN(CCCCNC(=N)N)C(=O)CN(C(=O)CN(CCC(C)C)C(=O)CNCCCCNC(=N)N)[C@@H](C)c1ccccc1)[C@@H](C)c1ccccc1 [Peptoid 39, (NhArgNhLeuNspe)3] (H-[NhArg][N(isopentyl)Gly][Nspe][NhArg][N(isopentyl)Gly][Nspe][NhArg][N(isopentyl)Gly][Nspe]-NH2; N-terminus assumed) | 2 µM | 100 µM | 3 µM | – | –
5 | C[C@@H](c1ccccc1)N(CC(N)=O)C(=O)CN(C(=O)CN(CCCCN)C(=O)CN(C(=O)CN(C(=O)CN(CCCCN)C(=O)CN(C(=O)CN(C(=O)CN(CCCCNC(=N)N)C(=O)CN(C(=O)CN(C(=O)CNCCCCNC(=N)N)[C@@H](C)c1ccccc1)[C@@H](C)c1ccccc1)[C@@H](C)c1ccccc1)[C@@H](C)c1ccccc1)[C@@H](C)c1ccccc1)[C@@H](C)c1ccccc1)[C@@H](C)c1ccccc1 [Peptoid 42, (NhArgNspeNspe)2(NLysNspeNspe)2] (H-[NhArg][Nspe][Nspe][NhArg][Nspe][Nspe][Nlys][Nspe][Nspe][Nlys][Nspe][Nspe]-NH2) | – | 17 µM | 17 µM | 17 µM | 15 µM
6 | C[C@@H](c1ccccc1)N(CC(N)=O)C(=O)CN(C(=O)CN(CCCCN)C(=O)CN(C(=O)CN(C(=O)CN(CCCCN)C(=O)CN(C(=O)CN(C(=O)CN(CCCCNC(=N)N)C(=O)CN(C(=O)CN(C(=O)CNCCCCN)[C@@H](C)c1ccccc1)[C@@H](C)c1ccccc1)[C@@H](C)c1ccccc1)[C@@H](C)c1ccccc1)[C@@H](C)c1ccccc1)[C@@H](C)c1ccccc1)[C@@H](C)c1ccccc1 [Peptoid 43, (NLysNspeNspe)(NhArgNspeNspe)(NLysNspeNspe)2] (H-[Nlys][Nspe][Nspe][NhArg][Nspe][Nspe][Nlys][Nspe][Nspe][Nlys][Nspe][Nspe]-NH2) | – | 17 µM | 17 µM | 17 µM | 33 µM
